Assay results from EP2875816A1, “N-(3-hydroxy-5,7-dimethyladamantan-1-yl)-2-(3-oxobenzo[d]isothiazol-2(3h)-yl)acetamide as a novel inhibitor for staphylococcus aureus sortase a” (Latvian Biomedical Research and Study Centre, priority 2013, dated 2015).
Converted amounts (≈) assume the structure as drawn.

Assays:
[1] = target: T1, S. aureus sortase A (SrtAΔN59, residues 60-206) (Staphylococcus aureus, UniProt Q2FV99); assay: SrtA enzyme FRET inhibition assay (dose-response, recombinant sortase A with FRET peptide substrate containing the LPETG motif); type: biochemical
T1 construct: expressed with an N-terminal deletion of 59 amino acid residues (SrtAΔN59, residues 60-206); made in house
Excerpt: The catalytically active recombinant sortase A enzyme used for these studies was expressed with an N-terminal deletion of 59 amino acid residues (SrtAΔN59, residues 60-206). The first step included high-throughput screening of potent S. aereus SrtA inhibitors and selection of new antibacterial substances as sortase A inhibitors. In order to identify potent inhibitors of S. aureus sortase A, a high-throughput screening (HTS) of a diverse library of 50,000 drug-like low-molecular weight molecules was performed, which led to the identification of novel promising drug candidates.
These assays included determination of 50% SrtA inhibition concentration (IC50) of the newly synthesized derivative in dose-response experiments using the recombinant sortase
A enzyme incubated with FRET peptide substrate containing the LPETG motif, minimal inhibitory concentration (MIC) test with two staphylococcal species to measure the antimicrobial efficacy of the new inhibitory molecule, and toxicity test using a normal mouse embryonic fibroblasts cell line NIH/3T3 to determine the cell growth IC50 inhibitory concentration.
Values are means ±SD (n = 5).

[2] = test system: NIH/3T3 mouse fibroblast cell line; assay: Cytotoxicity / cell growth inhibition, MTT test; type: cell-based; details: NIH3T3, 48 hours exposure, mean of three independent experiments ±SD
Experimental: The growth inhibitory effect of the newly synthesized compound was studied on NIH/3T3mouse fibroblast cell line. NIH/3T3 cells were seeded into 96-well microplates with initial density of 1x10^4 cells per well in DMEM culture medium with 10% FCS. After 24 hours of incubation, cells were exposed to a graded series of concentrations of chemical compounds for additional 48 hours. The cell medium was removed and 100 µl of fresh culture medium without phenol red and 1 mM MTT solution was added to each well. After 3 hours of incubation, an equal volume of 1% SDS-HCl solution was added and plates were incubated for additional 4 hours. Absorbance was measured at 570 nm and the data were fitted to a four parameter variable slope equation to determine the IC50 value.
The cytotoxic response is dependent on the cell line tested and NIH/3T3 mouse fibroblasts are a well-characterized cellular model used to study toxicity and drug delivery processes. In the table 3 data are given as the mean of three independent experiments ±SD.

S. epidermidis = assay: Minimum inhibitory concentration (MIC), broth dilution micromethod; type: cell-based; details: Staphylococcus epidermidis; 24 hours at 37 °C, complete inhibition of cell growth, OD 600 nm
Experimental: (§1) The MIC values of test compounds that inhibited cell growth of Gram-positive Staphylococcus aureus and S. epidermidis were determined by broth dilution micromethod. A series of solutions with a range from 0.1 µg/ml to 400 µg/ml were made in using a logarithmical phase culture with OD600 = 0.1 (corresponds to ~1.2 x 10^8 CFU/ml in 96-well plate standard. The plate was incubated at 37 °C for 24 hours and growth was assayed with a microplate reader by monitoring the absorption at 600 nm. All experiments were done in triplicate, and repeated three times.

Staphylococcus aureus = assay: as above; type: cell-based; details: 24 hours at 37 °C, complete inhibition of cell growth, OD 600 nm, read-out: MIC, S.aureus
Experimental: as §1

SrtA = target: T2, SrtA (Staphylococcus aureus, UniProt Q2FV99); assay: Binding to SrtA monitored by 2D [15N,1H]-HSQC NMR spectroscopy, with dialysis; details: 2D 15N-1H HSQC spectrum unchanged after dialysis against NMR buffer
T2 construct: expressed with an N-terminal deletion of 59 amino acid residues (SrtAΔN59, residues 60-206); made in house
Excerpt: • Fig. 1 - represents the binding of a selected inhibitor N-(adamantan-1-yl)-2-(3-oxo-2,3-dihydro-1,2-benzothiazol-2-yl)acetamide to SrtA monitored by 2D [^15N,^1H]-HSQC NMR spectroscopy. (a) Spectrum of SrtA in absence of inhibitor. […] (a) SrtA active site after modification by inhibitor. The inhibitor (in cyan) and near-by side chains of SrtA are shown with sticks and labeled. Side chains are colored according to their type: hydrophobic in yellow, negatively charged in red, positively charged in blue and hydrophilic in grey. Hydrogens are omitted for clarity. […] (c) Molecular surface representation of SrtA in complex with inhibitor. It can be seen in the figure that the inhibitor occupies almost all volume of the substrate pocket, the majority of interactions are hydrophobic and hydrogen bond is at the R139.
Determination of the complex structure of selected inhibitor and sortase enzyme was performed by using the nuclear magnetic resonance (NMR) spectroscopy methods. The collected NMR data allowed to specify the structure of inhibitory complexes.
To verify that the selected inhibitor can react with a cysteine thiol (such as the SrtA active site C 184) we performed a reaction with cysteine in the NMR tube and observed the formation of a covalent adduct (Figure 2). The chemical structure of the product was verified using proton 1D and 2D NMR methods.

| SMILES | IC50 [1] | IC50 [2] | MIC (S. epidermidis) | MIC (Staphylococcus aureus) | Mode of binding to the active site of SrtA (SrtA) |
| --- | --- | --- | --- | --- | --- |
| CC12CC3(C)CC(O)(C1)CC(NC(=O)Cn1sc4ccccc4c1=O)(C2)C3 [N-(3-hydroxy-5,7-dimethyladamantan-1-yl)-2-(3-oxobenzo[d]isothiazol-2(3H)-yl)acetamide] | 3.9 µM | 8.1 µg/mL (≈ 21 µM) | 8 µg/mL (≈ 20.7 µM) | 8 µg/mL (≈ 20.7 µM) | – |
| O=C(Cn1sc2ccccc2c1=O)NC12CC3CC(CC(C3)C1)C2 [N-(adamantan-1-yl)-2-(3-oxo-2,3-dihydro-1,2-benzothiazol-2-yl)acetamide] | – | 1.3 µg/mL (≈ 3.8 µM) | 0.5 µg/mL (≈ 1.46 µM) | 1 µg/mL (≈ 2.92 µM) | irreversible binding |
